From ChEMBL document CHEMBL1153688, “Design, synthesis, and pharmacological evaluation of dual histamine H2 and gastrin receptor antagonists” (Bioorg Med Chem Lett, 1996)

Tests used:
[1] = target: Cholecystokinin receptor (Mus musculus) (UniProt O08786+P56481); assay: Ratio of IC50(gastrin) to IC50(CCK-A); type: protein assay
[2] = target: T1, Cholecystokinin receptor type A (Mus musculus, UniProt O08786); assay: Inhibitory activity against Cholecystokinin type A receptor
T1 sequence (O08786 whole entry): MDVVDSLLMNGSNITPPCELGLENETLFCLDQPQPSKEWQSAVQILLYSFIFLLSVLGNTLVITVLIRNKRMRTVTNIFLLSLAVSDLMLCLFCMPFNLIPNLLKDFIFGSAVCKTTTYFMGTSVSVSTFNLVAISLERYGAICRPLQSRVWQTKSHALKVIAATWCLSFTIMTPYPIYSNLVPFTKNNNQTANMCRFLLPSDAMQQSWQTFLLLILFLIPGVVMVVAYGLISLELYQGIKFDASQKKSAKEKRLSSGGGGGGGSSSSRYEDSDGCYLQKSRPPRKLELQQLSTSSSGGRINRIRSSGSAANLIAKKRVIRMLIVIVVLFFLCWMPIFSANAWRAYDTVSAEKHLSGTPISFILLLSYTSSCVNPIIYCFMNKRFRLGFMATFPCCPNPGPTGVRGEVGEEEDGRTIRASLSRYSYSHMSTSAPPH

[3] = target: T2, Gastrin/cholecystokinin type B receptor (Mus musculus, UniProt P56481); assay: Inhibitory activity against Cholecystokinin type B receptor
T2 sequence (P56481 whole entry): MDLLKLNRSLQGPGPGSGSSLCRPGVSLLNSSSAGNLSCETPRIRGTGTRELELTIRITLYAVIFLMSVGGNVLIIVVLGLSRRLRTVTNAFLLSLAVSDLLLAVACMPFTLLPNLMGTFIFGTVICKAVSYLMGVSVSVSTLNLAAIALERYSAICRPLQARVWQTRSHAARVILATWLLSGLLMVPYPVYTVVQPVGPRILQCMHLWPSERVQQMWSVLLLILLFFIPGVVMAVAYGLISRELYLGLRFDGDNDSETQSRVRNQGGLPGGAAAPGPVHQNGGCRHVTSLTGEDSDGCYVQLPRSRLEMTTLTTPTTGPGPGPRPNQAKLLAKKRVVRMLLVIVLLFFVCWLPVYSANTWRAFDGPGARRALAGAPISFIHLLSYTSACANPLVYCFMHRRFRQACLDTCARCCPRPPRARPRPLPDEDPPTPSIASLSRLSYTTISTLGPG

[4] = target: Histamine H2 receptor (Rattus norvegicus, UniProt P25102); assay: Antagonistic activity for inhibition of histamine H2 receptor from anesthetized rats; type: functional; conditions: read-out: pA2 (converted)
Histamine H2 receptor, sequence (P25102 whole entry): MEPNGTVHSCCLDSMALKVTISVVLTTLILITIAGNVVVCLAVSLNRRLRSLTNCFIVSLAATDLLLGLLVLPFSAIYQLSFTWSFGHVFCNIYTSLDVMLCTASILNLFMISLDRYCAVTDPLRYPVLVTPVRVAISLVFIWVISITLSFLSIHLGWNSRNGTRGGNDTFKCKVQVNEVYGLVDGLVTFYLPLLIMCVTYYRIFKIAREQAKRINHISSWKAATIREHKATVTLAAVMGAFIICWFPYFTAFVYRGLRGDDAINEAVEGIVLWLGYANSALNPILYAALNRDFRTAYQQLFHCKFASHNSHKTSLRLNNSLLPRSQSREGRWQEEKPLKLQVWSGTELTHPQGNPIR

Row | SMILES | Ratio [1] | IC50 [2] | IC50 [3] | Kb [4]
1 | Cc1cccc(NC(=O)NC2N=C(c3ccccc3)c3ccccc3N(CC(=O)NCCCCCC(=O)NCCCOc3cccc(CN4CCCCC4)c3)C2=O)c1 (centres undefined) | 40.6 | 650 nM | 800 nM | 398 nM
2 | Cc1cccc(NC(=O)NC2N=C(c3cccc(OCC(=O)NCC(=O)NCCSCc4csc(N=C(N)N)n4)c3)c3ccccc3N(C)C2=O)c1 (centres undefined) | 90.8 | 1090 nM | 310 nM | 1000 nM
3 | Cc1cccc(NC(=O)NC2N=C(c3cccc(OCC(=O)NCCCC(=O)NCCCOc4cccc(CN5CCCCC5)c4)c3)c3ccccc3N(C)C2=O)c1 (centres undefined) | 157 | 9400 nM | 290 nM | 316 nM
4 | Cc1cccc(NC(=O)NC2N=C(c3cccc(OCC(=O)NCC(=O)NCCCOc4cccc(CN5CCCCC5)c4)c3)c3ccccc3N(C)C2=O)c1 (centres undefined) | 82.5 | 5200 nM | 550 nM | 501 nM
5 | Cc1cccc(NC(=O)NC2N=C(c3cccc(OCC(=O)NCCCC(=O)NCCSCc4csc(N=C(N)N)n4)c3)c3ccccc3N(C)C2=O)c1 (centres undefined) | 150 | 2100 nM | 215 nM | 631 nM
6 | CN1C(=O)[C@H](NC(=O)Nc2cccc(CC(=O)NCCSCc3csc(N=C(N)N)n3)c2)N=C(c2ccccc2)c2ccccc21 | 3.4 | 560 nM | 480 nM | > 10000 nM
7 | CN1C(=O)[C@H](NC(=O)Nc2cccc(CC(=O)NCCC(=O)NCCCOc3cccc(CN4CCCCC4)c3)c2)N=C(c2ccccc2)c2ccccc21 | 1.4 | 190 nM | 290 nM | 251 nM
8 | CN/C(=N/CCSCc1nc[nH]c1C)NC#N [CIMETIDINE] | – | – | – | 251 nM
9 | CN1C(=O)[C@H](NC(=O)Nc2cccc(CC(=O)NCCCCCC(=O)NCCSCc3csc(N=C(N)N)n3)c2)N=C(c2ccccc2)c2ccccc21 | 4.2 | 190 nM | 255 nM | 1000 nM
10 | CN1C(=O)[C@H](NC(=O)Nc2cccc(CC(=O)NCCCCCC(=O)NCCCOc3cccc(CN4CCCCC4)c3)c2)N=C(c2ccccc2)c2ccccc21 | 3.1 | 340 nM | 92 nM | 631 nM
11 | Cc1cccc(NC(=O)NC2N=C(c3ccccc3)c3ccccc3N(CC(=O)NCCC(=O)NCCCOc3cccc(CN4CCCCC4)c3)C2=O)c1 (centres undefined) | 7 | 1300 nM | 2150 nM | 794 nM
12 | Cc1cccc(NC(=O)N[C@@H]2N=C(c3ccccc3)c3ccccc3N(C)C2=O)c1 [L-365260] | – | 11100 nM | – | –
13 | CN1C(=O)[C@H](NC(=O)Nc2cccc(C(=O)NCCSCc3csc(N=C(N)N)n3)c2)N=C(c2ccccc2)c2ccccc21 | 1 | 380 nM | 440 nM | > 10000 nM
14 | Cc1cccc(NC(=O)NC2N=C(c3ccccc3)c3ccccc3N(CC(=O)NCCC(=O)NCCSCc3csc(N=C(N)N)n3)C2=O)c1 (centres undefined) | 5.2 | 390 nM | 430 nM | 1260 nM
15 | CN1C(=O)[C@H](NC(=O)Nc2cccc(C(=O)NCCCOc3cccc(CN4CCCCC4)c3)c2)N=C(c2ccccc2)c2ccccc21 | 4.5 | 2500 nM | 600 nM | > 10000 nM
16 | Cc1cccc(NC(=O)NC2N=C(c3ccccc3)c3ccccc3N(CC(=O)NCCCC(=O)NCCSCc3csc(N=C(N)N)n3)C2=O)c1 (centres undefined) | 3.8 | 720 nM | 6600 nM | 3160 nM
17 | Cc1cccc(NC(=O)NC2N=C(c3cccc(OCC(=O)NCCC(=O)NCCCOc4cccc(CN5CCCCC5)c4)c3)c3ccccc3N(C)C2=O)c1 (centres undefined) | 75 | 15000 nM | 760 nM | 501 nM
18 | Cc1cccc(NC(=O)NC2N=C(c3cccc(OCC(=O)NCCSCc4csc(N=C(N)N)n4)c3)c3ccccc3N(C)C2=O)c1 (centres undefined) | 40 | 5400 nM | 350 nM | 5010 nM
19 | CN1C(=O)[C@H](NC(=O)Nc2cccc(CC(=O)NCCCC(=O)NCCCOc3cccc(CN4CCCCC4)c3)c2)N=C(c2ccccc2)c2ccccc21 | 2.9 | 330 nM | 205 nM | 398 nM
20 | Cc1cccc(NC(=O)NC2N=C(c3cccc(OCC(=O)NCCCOc4cccc(CN5CCCCC5)c4)c3)c3ccccc3N(C)C2=O)c1 (centres undefined) | 16.1 | 9200 nM | 1700 nM | 5010 nM
21 | Cc1cccc(NC(=O)NC2N=C(c3cccc(OCC(=O)NCCC(=O)NCCSCc4csc(N=C(N)N)n4)c3)c3ccccc3N(C)C2=O)c1 (centres undefined) | 80 | 2000 nM | 400 nM | 794 nM
22 | Cc1cccc(NC(=O)NC2N=C(c3ccccc3)c3ccccc3N(CC(=O)NCCCC(=O)NCCCOc3cccc(CN4CCCCC4)c3)C2=O)c1 (centres undefined) | 4.3 | 900 nM | 5000 nM | 794 nM
23 | CN1C(=O)[C@H](NC(=O)Nc2cccc(CC(=O)NCCC(=O)NCCSCc3csc(N=C(N)N)n3)c2)N=C(c2ccccc2)c2ccccc21 | 1.5 | 120 nM | 200 nM | 398 nM
24 | CN1C(=O)[C@H](NC(=O)Nc2cccc(CC(=O)NCCCC(=O)NCCSCc3csc(N=C(N)N)n3)c2)N=C(c2ccccc2)c2ccccc21 | 1.4 | 330 nM | 330 nM | 501 nM
25 | Cc1cccc(NC(=O)NC2N=C(c3ccccc3)c3ccccc3N(CC(=O)NCC(=O)NCCCOc3cccc(CN4CCCCC4)c3)C2=O)c1 (centres undefined) | 0.5 | 430 nM | 3600 nM | 6310 nM
26 | Cc1cccc(NC(=O)NC2N=C(c3ccccc3)c3ccccc3N(CC(=O)NCC(=O)NCCSCc3csc(N=C(N)N)n3)C2=O)c1 (centres undefined) | 2.1 | 760 nM | 6800 nM | 3980 nM
27 | Cc1cccc(NC(=O)NC2N=C(c3ccccc3)c3ccccc3N(CC(=O)NCCSCc3csc(N=C(N)N)n3)C2=O)c1 (centres undefined) | 1600 | 4800 nM | 35 nM | > 10000 nM
28 | Cc1cccc(NC(=O)NC2N=C(c3ccccc3)c3ccccc3N(CC(=O)NCCCOc3cccc(CN4CCCCC4)c3)C2=O)c1 (centres undefined) | 36.8 | 5700 nM | 540 nM | > 10000 nM
29 | Cc1cccc(NC(=O)NC2N=C(c3cccc(OCC(=O)NCCCCCC(=O)NCCCOc4cccc(CN5CCCCC5)c4)c3)c3ccccc3N(C)C2=O)c1 (centres undefined) | 112 | 3600 nM | 320 nM | 631 nM
30 | CN1C(=O)[C@H](NC(=O)Nc2cccc(CC(=O)NCCCOc3cccc(CN4CCCCC4)c3)c2)N=C(c2ccccc2)c2ccccc21 | 17.8 | 4100 nM | 160 nM | > 10000 nM
